Experimental data as given in patent EP1183044B1, “ADJUVANT COMBINATIONS FOR IMMUNIZATION AND VACCINES” (priority 1999, dated 2000).
Read-outs that look alike come from different tables or passages of the source.

System: M.tuberculosis (Erdman)
Format: in vivo
Details: ESAT-6 10 µg/dose three times

Row | Compound | Log10 resistance Lung, Experiment I ([…]) | Log10 resistance Spleen, Experiment I ([…]) | Log10 resistance Lung, Experiment I (log10 reduction of bacterial load in lung 6 weeks after aerosol challenge) | Log10 resistance Spleen, Experiment I (log10 reduction of bacterial load in spleen 6 weeks after aerosol challenge)
1 | CCCCCCCCCCCCCCCCCC[N+](C)(C)CCCCCCCCCCCCCCCCCC.[Br-] [DDA, dimethyl dioctadecyl ammonium bromide] | < 0.05 log10 | <0.05 log10 |  | 
2 | monophosphoryl lipid A [MPL] |  |  | < 0.05 log10 | <0.05 log10
